According to US5739284A, “Compositions corresponding to a high-affinity glutamate transporter molecule and methods for making and using same” (Brigham and Women's Hospital, Inc., priority 1995, dated 1998):

Tests used:
[1] = biological target: T1, excitatory amino acid carrier protein (EAAC1) derived from rabbit (Oryctolagus cuniculus, UniProt P31597); assay: substrate-evoked currents (two-microelectrode voltage clamp) in oocytes expressing rabbit EAAC1; details: 100 μM substrate, -60 mV holding potential, FIG. 7
T1 sequence (P31597 1-524): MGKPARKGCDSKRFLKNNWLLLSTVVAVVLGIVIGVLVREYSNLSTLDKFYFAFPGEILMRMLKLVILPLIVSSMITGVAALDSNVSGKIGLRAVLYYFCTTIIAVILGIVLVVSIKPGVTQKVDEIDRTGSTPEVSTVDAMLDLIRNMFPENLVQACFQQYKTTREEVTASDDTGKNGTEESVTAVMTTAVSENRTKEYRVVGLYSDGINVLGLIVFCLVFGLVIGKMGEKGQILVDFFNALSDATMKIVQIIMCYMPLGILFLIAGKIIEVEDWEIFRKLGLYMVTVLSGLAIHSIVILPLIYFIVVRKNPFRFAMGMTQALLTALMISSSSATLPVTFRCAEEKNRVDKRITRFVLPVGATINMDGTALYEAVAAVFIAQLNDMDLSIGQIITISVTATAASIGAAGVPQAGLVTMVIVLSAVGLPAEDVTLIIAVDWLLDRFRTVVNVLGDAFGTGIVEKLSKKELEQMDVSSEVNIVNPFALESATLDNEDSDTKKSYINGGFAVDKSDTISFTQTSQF
Method: (§2) The membrane current was measured in standard bath solution (ND 96) at -60 mV holding potential. Substrates were applied at the bars.
(§3) FIG. 9 graphically depicts the changes in glutamate induced current measured in nanoampere (nA) at concentrations ranging from 1 μM to 1 mM glutamate. The results were fitted to a Michaelis-Menton curve. An Eadie-Hofstee plot is depicted in the inset.
(§4) Xenopus laevis oocytes were injected with excitatory amino acid carrier cRNA derived from rabbit (25 ng/oocyte) and used for two microelectrode voltage clamp experiments. Recordings were performed at -60 mV in regular ND 96 saline (96 mM NaCl, 2 mM KCl, 1.8 mM CaCl2, 1.0 mM MgCl2 and 5 mM Hepes pH 7.4).

[2] = biological target: T2, Human High Affinity Glutamate Transporter HEAAC1 (Homo sapiens, UniProt P43005); assay: inhibition of L-glutamate-evoked currents in oocytes expressing human carrier; assay type: cell-based; design: expressed in transfected cells; host or cells: Xenopus laevis oocytes (cRNA injection; human kidney clone K-3)
T2 sequence (P43005 1-524 V96L/K170N/P172A/L260H): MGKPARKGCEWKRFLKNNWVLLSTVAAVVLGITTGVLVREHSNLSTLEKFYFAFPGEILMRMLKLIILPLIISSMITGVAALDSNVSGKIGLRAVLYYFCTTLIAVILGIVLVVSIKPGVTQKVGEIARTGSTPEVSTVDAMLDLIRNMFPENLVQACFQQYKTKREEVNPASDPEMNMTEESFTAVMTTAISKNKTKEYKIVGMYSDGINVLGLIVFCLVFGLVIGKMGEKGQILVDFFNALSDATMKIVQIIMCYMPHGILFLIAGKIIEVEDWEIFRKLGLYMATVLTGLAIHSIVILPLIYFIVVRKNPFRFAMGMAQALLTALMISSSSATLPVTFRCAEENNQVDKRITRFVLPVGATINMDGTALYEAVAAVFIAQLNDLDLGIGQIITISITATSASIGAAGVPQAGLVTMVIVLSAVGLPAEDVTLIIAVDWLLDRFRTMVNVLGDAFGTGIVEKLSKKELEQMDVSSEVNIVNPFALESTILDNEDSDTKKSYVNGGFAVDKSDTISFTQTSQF
Source text: (§1) The glutamate evoked currents were first measured without addition of inhibitor. […] Calculation of KI values was based on the kinetics for competitive inhibition.

[3] = biological target: T3, rabbit derived excitatory amino acid carrier (Oryctolagus cuniculus, UniProt P31597); assay: inhibition of current evoked by L-glutamate in oocytes expressing rabbit EAAC1; assay type: cell-based; details: rabbit EAAC1; value in mM; read-out: IC50, inhibition of glutamate induced inward currents
T3 construct: ID No. 4; expressed in transfected cells; host or cells: Xenopus laevis oocytes injected with cRNA (25 ng/oocyte)
T3 sequence (P31597 1-524): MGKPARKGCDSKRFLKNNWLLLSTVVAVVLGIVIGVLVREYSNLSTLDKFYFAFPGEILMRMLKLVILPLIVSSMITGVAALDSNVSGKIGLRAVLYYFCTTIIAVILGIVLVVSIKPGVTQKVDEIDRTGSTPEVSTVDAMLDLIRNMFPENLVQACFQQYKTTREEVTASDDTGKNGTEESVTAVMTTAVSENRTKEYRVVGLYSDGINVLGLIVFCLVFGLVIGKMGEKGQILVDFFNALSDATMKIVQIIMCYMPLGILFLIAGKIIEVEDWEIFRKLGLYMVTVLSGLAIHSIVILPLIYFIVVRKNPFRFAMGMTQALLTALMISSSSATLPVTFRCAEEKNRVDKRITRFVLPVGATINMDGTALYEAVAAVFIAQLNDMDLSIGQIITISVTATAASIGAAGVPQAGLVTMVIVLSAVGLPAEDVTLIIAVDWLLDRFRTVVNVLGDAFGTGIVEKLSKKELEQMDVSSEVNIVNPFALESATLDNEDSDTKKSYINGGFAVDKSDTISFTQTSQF
Method: Xenopus laevis oocytes were injected with cRNA (25 ng/oocyte) encoding for the excitatory amino acid carrier protein derived from rabbit as described in Example 1. Electrophysiological measurements were performed 3-4 days after injection using a conventional two-microelectrode voltage clamp method (Axoclamp-2A, Axon Instruments, CA).
The standard bath solution (ND 96) contained 96 mM NaCl, 2 mM KCl, 1.8 mM CaCl2, 1.0 mM MgCl2 and 5 mM HEPES pH 7.4 The recording chamber was perfused with bath solution. Current responses of Xenopus laevis oocytes injected with cRNA coding for the excitatory amino acid carrier protein and fragments thereof to bath applied 100 μM substrates are illustrated in FIG. 7.
Example 7 illustrates the application of the electrophysiological features of the excitatory amino acid carrier protein, derived from rabbit, described in Example 6 in the screening of drugs to enhance or inhibit the protein. The Xenopus laevis oocytes was injected with rabbit derived excitatory amino acid carrier cRNA and processed as described in Example 6. […] Robinson, M. B., Hunter-Ensor, M. & Sinor, J., "Pharmacologically distinct sodium-dependentL-[3H]glutamate transport process in rat brain," Brain Research 544:196-202 (1991).

[4] = biological target: T2, Human High Affinity Glutamate Transporter HEAAC1; assay: substrate-evoked currents in oocytes expressing human carrier; details: AAD at 50 μM, DHK up to 1 mM
Source text: as §1
Oocytes were used for two-microelectrode voltage-clamping as described above and command potentials were applied and controlled by an IBM-compatible computer via the software CLAMPEX from pCLAMP (version 5.5 Axon Instruments, CA). The oocyte membrane was held at -50 mV and pulsed to the test potential for […] followed by a 1 sec interpulse interval at the holding potential of -50 mV before application of the next pulse. Current was low-pass filtered at […], digitized at 200 μsec and saver on the computer. Steady-state currents were obtained by averaging the current between 72 and 76 msec.

[5] = test system: synaptosomal L-glutamate uptake; details: Robinson et al. / previously known; cited from earlier work
[6] = biological target: T4, human excitatory amino acid carrier (Homo sapiens, UniProt P43005); assay: voltage dependence of currents mediated by human carrier; assay type: cell-based
T4 sequence (P43005 1-524): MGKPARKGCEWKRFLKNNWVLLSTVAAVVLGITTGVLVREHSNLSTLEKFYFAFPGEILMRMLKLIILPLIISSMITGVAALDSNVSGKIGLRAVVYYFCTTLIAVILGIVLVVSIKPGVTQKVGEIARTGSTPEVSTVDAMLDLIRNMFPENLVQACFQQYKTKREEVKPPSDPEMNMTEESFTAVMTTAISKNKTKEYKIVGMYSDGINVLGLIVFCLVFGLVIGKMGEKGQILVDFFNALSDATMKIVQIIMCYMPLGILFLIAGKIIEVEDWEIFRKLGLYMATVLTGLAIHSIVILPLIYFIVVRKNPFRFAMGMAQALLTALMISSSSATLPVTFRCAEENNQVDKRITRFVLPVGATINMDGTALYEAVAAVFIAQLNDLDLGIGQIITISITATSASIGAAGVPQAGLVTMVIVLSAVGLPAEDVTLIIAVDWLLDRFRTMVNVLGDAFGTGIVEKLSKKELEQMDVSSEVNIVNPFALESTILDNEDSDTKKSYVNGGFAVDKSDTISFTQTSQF
Source text: (§5) Oocytes were used for two-microelectrode voltage-clamping as described above and command potentials were applied and controlled by an IBM-compatible computer via the software CLAMPEX from pCLAMP (version 5.5 Axon Instruments, CA). The oocyte membrane was held at -50 mV and pulsed to the test potential for msec followed by a 1 sec interpulse interval at the holding potential of -50 mV before application of the next pulse. Current was low-pass filtered at 50 kHz, digitized at 200 μsec and saver on the computer. Steady-state currents were obtained by averaging the current between 72 and 76 msec.

[7] = substrate: N[C@H](C(=O)O)[C@H](O)C(=O)O; assay: cells, lysate or membranes; details: other: HEAAC1, human
Source text: as §5

[8] = substrate: N[C@@H](CCCC(=O)O)C(=O)O; assay: cells, lysate or membranes; details: other: HEAAC1, human
[9] = substrate: O=C(O)[C@H]1CN[C@H](C(=O)O)C1; assay: cells, lysate or membranes; details: other: HEAAC1, human
Source text: as §5

[10] = substrate: N[C@@H](CCC(=O)O)C(=O)O; assay: cells, lysate or membranes; details: pH 7.4
[11] = substrate: N[C@@H](CC(=O)O)C(=O)O; assay: cells, lysate or membranes; details: other: EAAC1, rabbit derived; pH 7.4
Method: as §2, §3, §4

[12] = substrate: N[C@H](CC(=O)O)C(=O)O; assay: cells, lysate or membranes; details: other: EAAC1, rabbit derived; pH 7.4
Method: as §2, §3, §4

Question: For C=C(C)[C@H]1CN[C@H](C(=O)O)[C@H]1CC(=O)O [kainate], which “amplitude of inward current evoked by substrate” value [1] is on record?
Answer: did not induce current

Question: Which results are given for CC(C)[C@H]1CN[C@H](C(=O)O)[C@H]1CC(=O)O [DHK, dihydrokainate]?
Answer: inhibition of the current induced by L-glutamate ([2]; L-glutamate 10-1,000 μM, DHK 1 mM): did not inhibit the current efficiently; order of sensitivity to inhibitors based on IC50 values ([2]; current induced by 100 μM L-glutamate): THA>PDC>>AAA>DHK; inhibition at 1000 µM ([2]; read-out: inhibition at 1 mM DHK (IC50)): 6.7%; IC50 [3]: > 1 mM; inward currents induced [4]: did not induce significant currents; inhibition of synaptosomal L-glutamate uptake [5]: less effective inhibitors

Question: With N[C@@H](Cn1oc(=O)[nH]c1=O)C(=O)O [Quisgualate, quisgualate] as the molecule, how does the “amplitude of inward current evoked by substrate” value [1] read?
Answer: small but significant inward current

Question: Which “voltage dependence of Km for L-glutamate” value [6] does the source give for N[C@@H](CCC(=O)O)C(=O)O [L-glutamate] here?
Answer: strongly depended on membrane voltage

B1: Human High Affinity Glutamate Transporter HEAAC1 (Homo sapiens) (protein)
chain: MGKPARKGCEWKRFLKNNWVLLSTVAAVVLGITTGVLVREHSNLSTLEKFYFAFPGEILMRMLKLIILPLIISSMITGVAALDSNVSGKIGLRAVLYYFCTTLIAVILGIVLVVSIKPGVTQKVGEIARTGSTPEVSTVDAMLDLIRNMFPENLVQACFQQYKTKREEVNPASDPEMNMTEESFTAVMTTAISKNKTKEYKIVGMYSDGINVLGLIVFCLVFGLVIGKMGEKGQILVDFFNALSDATMKIVQIIMCYMPHGILFLIAGKIIEVEDWEIFRKLGLYMATVLTGLAIHSIVILPLIYFIVVRKNPFRFAMGMAQALLTALMISSSSATLPVTFRCAEENNQVDKRITRFVLPVGATINMDGTALYEAVAAVFIAQLNDLDLGIGQIITISITATSASIGAAGVPQAGLVTMVIVLSAVGLPAEDVTLIIAVDWLLDRFRTMVNVLGDAFGTGIVEKLSKKELEQMDVSSEVNIVNPFALESTILDNEDSDTKKSYVNGGFAVDKSDTISFTQTSQF
Question: For B1, which Km [7] is on record?
Answer: 34 ± 6.4 µM

Question: And the Km [8]?
Answer: 2400 ± 0.6 µM

Question: And the Km [9]?
Answer: 23 ± 3.7 µM

B2: excitatory amino acid carrier protein (EAAC1) derived from rabbit (Oryctolagus cuniculus) (protein)
chain: MGKPARKGCDSKRFLKNNWLLLSTVVAVVLGIVIGVLVREYSNLSTLDKFYFAFPGEILMRMLKLVILPLIVSSMITGVAALDSNVSGKIGLRAVLYYFCTTIIAVILGIVLVVSIKPGVTQKVDEIDRTGSTPEVSTVDAMLDLIRNMFPENLVQACFQQYKTTREEVTASDDTGKNGTEESVTAVMTTAVSENRTKEYRVVGLYSDGINVLGLIVFCLVFGLVIGKMGEKGQILVDFFNALSDATMKIVQIIMCYMPLGILFLIAGKIIEVEDWEIFRKLGLYMVTVLSGLAIHSIVILPLIYFIVVRKNPFRFAMGMTQALLTALMISSSSATLPVTFRCAEEKNRVDKRITRFVLPVGATINMDGTALYEAVAAVFIAQLNDMDLSIGQIITISVTATAASIGAAGVPQAGLVTMVIVLSAVGLPAEDVTLIIAVDWLLDRFRTVVNVLGDAFGTGIVEKLSKKELEQMDVSSEVNIVNPFALESATLDNEDSDTKKSYINGGFAVDKSDTISFTQTSQF
Question: For B2, which Km ([10]; other: EAAC1, rabbit derived) is on record?
Answer: 12.1 µM

Question: And the Km ([10]; other: glutamate-induced current, rabbit EAAC1 in oocytes)?
Answer: 12.2 µM

Question: What about the Km [11] of the same molecule?
Answer: 6.5 µM

Question: And the Km [12]?
Answer: 7.5 µM
